Assay results: PubChem BioAssay AID2060614 (Molecular Pharmacology Branch, DTP, NCI, 2025)
“And” between values parts separate entries of the source, which are not always exact repeats. Equal entries are not always repeated.

Tested on: 598228-144-R-J1-PDC complex spheroids, viability
Assay: Anticancer human tumor 598228-144-R-J1-PDC patient-derived serous endometrial adenocarcinoma cell line growth inhibition [CLK]
Details: for viability, T/C: stronger effect = lower value; active = viability on the fitted dose curve at most 10% of control; inactive = the rest
Description: A high-throughput screen of multi-cell type tumor spheroids was designed to identify active combinations of […] and targeted small molecules. Complex spheroids include a stromal component modeled by human endothelial cells (HUVEC) and fibroblasts modeled by human mesenchymal stem cells (MSCs). The concentration ranges selected for each drug and investigational agent were based upon clinically achievable concentrations if the clinical Cmax of the agent was known.
Compounds. The drugs and investigational agents: cirtuvivint (SM08502; NSC835563), CC-671 (NSC850746), vemurafenib (NSC761431), tapotoclax (NSC804041), sotorasib (NSC818433), adagrasib (NSC831453), MRTX-1133 (NSC836407), BAY2416964 (NSC825713), copanlisib (NSC816437), inavolisib (NSC800729), abemaciclib (NSC768073), osimertinib (NSC779217), entinostat (NSC756642), eltanexor (KPT-8602, NSC794443), venetoclax (NSC766270), ceralasertib (NSC777638), bortezomib (NSC756655), olaparib (NSC753686), talazoparib (NSC767125), alisertib (NSC759677), peposertib (NSC802822), gemcitabine (NSC613327), 5-fluorouracil (NSC19893), SN-38 (NSC673596), oxaliplatin (NSC266046), paclitaxel (NSC125973), and doxorubicin (NSC123127), were obtained from the National Cancer Institute (NCI) Developmental Therapeutics Program Chemical Repository. The FDA-approved anticancer drug set is available from the Developmental Therapeutics Program at https://dtp.cancer.gov/organization/dscb/obtaining/available plates.htm. […] The stock solutions were prepared in dimethyl sulfoxide (DMSO, Sigma-Aldrich, St. Louis, MO, cat. D2650), except for the platinum complexes which were prepared in saline (Quality Biological, Gaithersburg, MD, cat. 114-055-101), at 800-fold the tested concentration and stored at -70 degrees C prior to their use. All drugs and investigational agents were tested over a range starting from a high concentration at or near the clinical Cmax and decreasing in half-log increments. If the clinical Cmax for an agent had not been determined, the highest concentration tested was 10 microM.
Cell Culture. All cells were maintained in an incubator at 37 degrees C and 5% CO2 with 95% humidity. The PDC lines were cultured according to standard operating procedures established by the NCI PDMR. Briefly, all PDCs were thawed and cultured in Matrigel-coated flasks prepared with a working solution of 1X Ham's F-12 nutrient mix, without supplementation (Invitrogen, Waltham, MA, cat. 11765054), 100 U/mL penicillin-streptomycin (Invitrogen, cat. 15140122), and 2.5% Matrigel (Corning Inc., Corning, NY, cat. 354248) for the first three passages. The 947758-054-R-J2-PDC line was cultured in 6B/Colon 1A media, which includes advanced DMEM/F-12 (Thermo Fisher Scientific, cat. 12634028), 10 mM HEPES (Thermo Fisher Scientific, cat. 15630080), 1X GlutaMAX supplement (Thermo Fisher Scientific, cat. 35050061), 0.1 mg/mL primocin (InvivoGen, cat. ant-pm-2), 10% defined fetal bovine serum, heat inactivated (HyClone Laboratories Inc., cat. SH30070.03HI), 1.25 mM N-Acetyl-L-cysteine (Sigma-Aldrich, cat. A9165), 10 mM nicotinamide (Sigma-Aldrich, cat. N0636), 1X B-27 supplement (Thermo Fisher Scientific, cat. 17504044), 1X N-2 supplement (Thermo Fisher Scientific, cat. 17502048), and 10 microM Y-27632 dihydrochloride (Tocris Bioscience, cat. 1254). The 876862-298-R-J1-PDC was cultured in 6E media, which includes all 6B/Colon 1A media components plus 50% L-WRN conditioned media (ATCC, cat. CRL-3276), 50 ng/mL recombinant human EGF recombinant protein (hEGF; Thermo Fisher Scientific, cat. PHG0311), 10 ng/mL recombinant human fibroblast growth factor 10 (hGFG-10; PeproTech, cat. 100-26), 1 ng/mL recombinant human fibroblast growth factor 2 (hFGF-2; PeproTech, cat. 100-18B), and 1 µM prostaglandin E2 (PGE2; Tocris, cat. 2296). The 227483-062-R1-J1-PDC line was cultured in Panc media, containing all 6E components except hFGF-2, with the addition of 500 nM SB-431542 (Selleckchem, cat. S1067) and 10 nM gastrin (Tocris, cat. 3006). […]

[1] = curve of first compound, second compound 0.0316 µM
[2] = curve of first compound, second compound 0.1 µM
[3] = curve of first compound, second compound 0.316 µM
[4] = curve of first compound, second compound 1 µM
[5] = curve of first compound, second compound 3.16 µM
[6] = curve of first compound, second compound 10 µM
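Note: spheroids exposed to compounds for seven days before readout.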
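Throughout, for viability, T/C: 100% = DMSO vehicle control wells.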

Nc1ccccc1NC(=O)c1ccc(CNC(=O)OCc2cccnc2)cc1 + CN1CCN(c2cc(C(=O)Nc3cc4cc(-c5cnn(C)c5)ccc4cn3)ccn2)CC1
inactive: viability, T/C (second compound 0.0316 µM, first compound 0.0316 µM) 125% | viability, T/C (second compound 0.0316 µM, first compound 0.1 µM) 114% | viability, T/C (second compound 0.0316 µM, first compound 0.316 µM) 93.4% | viability, T/C (second compound 0.0316 µM, first compound 1 µM) 68.2% | viability, T/C (second compound 0.0316 µM, first compound 3.16 µM) 32.4% | viability, T/C (second compound 0.1 µM, first compound 0.0316 µM) 121% | viability, T/C (second compound 0.1 µM, first compound 0.1 µM) 123% | viability, T/C (second compound 0.1 µM, first compound 0.316 µM) 97.2% | viability, T/C (second compound 0.1 µM, first compound 1 µM) 71.3% | viability, T/C (second compound 0.1 µM, first compound 3.16 µM) 41% | viability, T/C (second compound 0.316 µM, first compound 0.0316 µM) 17.1% | viability, T/C (second compound 0.316 µM, first compound 0.1 µM) 14.1% | viability, T/C (second compound 0.316 µM, first compound 0.316 µM) 13%
active: viability, T/C (second compound 0.0316 µM, first compound 10 µM) 3.45% | viability, T/C (second compound 0.1 µM, first compound 10 µM) 0.32% | viability, T/C (second compound 0.316 µM, first compound 1 µM) 10.7% | viability, T/C (second compound 0.316 µM, first compound 3.16 µM) 1.75% | viability, T/C (second compound 0.316 µM, first compound 10 µM) 0.23% | viability, T/C (second compound 1 µM, first compound 0.0316 µM) 1.29% | viability, T/C (second compound 1 µM, first compound 0.1 µM) 1.3% | viability, T/C (second compound 1 µM, first compound 0.316 µM) 1.11% | viability, T/C (second compound 1 µM, first compound 1 µM) 1.01% | viability, T/C (second compound 1 µM, first compound 3.16 µM) 1.46% | viability, T/C (second compound 1 µM, first compound 10 µM) 0.57% | viability, T/C (second compound 3.16 µM, first compound 0.0316 µM) 1.49% | viability, T/C (second compound 3.16 µM, first compound 0.1 µM) 3.39% | viability, T/C (second compound 3.16 µM, first compound 0.316 µM) 1.88% | viability, T/C (second compound 3.16 µM, first compound 1 µM) 1.93% | viability, T/C (second compound 3.16 µM, first compound 3.16 µM) 1.66% | viability, T/C (second compound 3.16 µM, first compound 10 µM) 0.89% | viability, T/C (second compound 10 µM, first compound 0.0316 µM) 0.8% | viability, T/C (second compound 10 µM, first compound 0.1 µM) 0.77% | viability, T/C (second compound 10 µM, first compound 0.316 µM) 1.17% | viability, T/C (second compound 10 µM, first compound 1 µM) 1.13% | viability, T/C (second compound 10 µM, first compound 3.16 µM) 2.8% | viability, T/C (second compound 10 µM, first compound 10 µM) 2.51%
1780 nM: IC50 [1]
< 31.6 nM: IC50 [3] | IC50 [4] | IC50 [5] | IC50 [6]
2170 nM: IC50 [2]

C=CC(=O)N1CCN(c2nc(=O)n(-c3c(C)ccnc3C(C)C)c3nc(-c4c(O)cccc4F)c(F)cc23)C(C)C1 (stereo unspecified)
inactive: viability, T/C (compound 0.0316 µM) 95% and 99.2% | viability, T/C (compound 0.1 µM) 94.5% and 92.9% | viability, T/C (compound 0.316 µM) 98.5% and 113% | viability, T/C (compound 1 µM) 108% and 115% | viability, T/C (compound 3.16 µM) 107% and 117% | viability, T/C (compound 10 µM) 98% and 109%
> 10000 nM: IC50 (curve of compound)

C=CC(=O)Nc1cc(Nc2nccc(-c3cn(C)c4ccccc34)n2)c(OC)cc1N(C)CCN(C)C + CN1CCN(c2cc(C(=O)Nc3cc4cc(-c5cnn(C)c5)ccc4cn3)ccn2)CC1
< 0.949 nM: IC50 [3] | IC50 [4] | IC50 [5] | IC50 [6]
active: viability, T/C (second compound 1 µM, first compound 0.000949 µM) 1.75% | viability, T/C (second compound 1 µM, first compound 0.003 µM) 2.14% | viability, T/C (second compound 1 µM, first compound 0.00949 µM) 6.03% | viability, T/C (second compound 1 µM, first compound 0.03 µM) 1.51% | viability, T/C (second compound 1 µM, first compound 0.0949 µM) 1.29% | viability, T/C (second compound 1 µM, first compound 0.3 µM) 3.97% | viability, T/C (second compound 3.16 µM, first compound 0.000949 µM) 1.65% | viability, T/C (second compound 3.16 µM, first compound 0.003 µM) 1.56% | viability, T/C (second compound 3.16 µM, first compound 0.00949 µM) 2.1% | viability, T/C (second compound 3.16 µM, first compound 0.03 µM) 1.72% | viability, T/C (second compound 3.16 µM, first compound 0.0949 µM) 2.58% | viability, T/C (second compound 3.16 µM, first compound 0.3 µM) 2.49% | viability, T/C (second compound 10 µM, first compound 0.000949 µM) 1.18% | viability, T/C (second compound 10 µM, first compound 0.003 µM) 1.02% | viability, T/C (second compound 10 µM, first compound 0.00949 µM) 1.77% | viability, T/C (second compound 10 µM, first compound 0.03 µM) 1.25% | viability, T/C (second compound 10 µM, first compound 0.0949 µM) 5.91% | viability, T/C (second compound 10 µM, first compound 0.3 µM) 2.52%
inactive: viability, T/C (second compound 0.0316 µM, first compound 0.000949 µM) 133% | viability, T/C (second compound 0.0316 µM, first compound 0.003 µM) 108% | viability, T/C (second compound 0.0316 µM, first compound 0.00949 µM) 114% | viability, T/C (second compound 0.0316 µM, first compound 0.03 µM) 117% | viability, T/C (second compound 0.0316 µM, first compound 0.0949 µM) 108% | viability, T/C (second compound 0.0316 µM, first compound 0.3 µM) 98.8% | viability, T/C (second compound 0.1 µM, first compound 0.000949 µM) 127% | viability, T/C (second compound 0.1 µM, first compound 0.003 µM) 126% | viability, T/C (second compound 0.1 µM, first compound 0.00949 µM) 116% | viability, T/C (second compound 0.1 µM, first compound 0.03 µM) 112% | viability, T/C (second compound 0.1 µM, first compound 0.0949 µM) 103% | viability, T/C (second compound 0.1 µM, first compound 0.3 µM) 91.9% | viability, T/C (second compound 0.316 µM, first compound 0.000949 µM) 19.6% | viability, T/C (second compound 0.316 µM, first compound 0.003 µM) 17% | viability, T/C (second compound 0.316 µM, first compound 0.00949 µM) 17.1% | viability, T/C (second compound 0.316 µM, first compound 0.03 µM) 15.4% | viability, T/C (second compound 0.316 µM, first compound 0.0949 µM) 12.5% | viability, T/C (second compound 0.316 µM, first compound 0.3 µM) 14.6%
> 300 nM: IC50 [1] | IC50 [2]
